Experimental data from BigSolDB 2.1.

NC(=O)N1c2ccccc2CC(=O)c2ccccc21
solubility (mole fraction)
Details | in THF | in acetone | in acetonitrile | in ethanol | in isopropanol | in methanol | in n-butanol | in n-propanol
288.15 K | 0.00204 | 0.00105 | 0.000641 | 0.000273 | 0.000151 | 0.000534 | 0.000251 | 0.000245
293.15 K | 0.00217 | 0.0012 | 0.000751 | 0.000322 | 0.000187 | 0.000619 | 0.000309 | 0.000301
298.15 K | 0.00241 | 0.00134 | 0.000839 | 0.000383 | 0.000217 | 0.000759 | 0.000355 | 0.000358
303.15 K | 0.00266 | 0.00154 | 0.00103 | 0.000488 | 0.000299 | 0.000907 | 0.000479 | 0.000475
308.15 K | 0.00308 | 0.00182 | 0.00122 | 0.000617 | 0.000413 | 0.00111 | 0.000617 | 0.000616
